Reference: patent publication US11958865B1, “Leucine-rich repeat kinase 2 (LRRK2) inhibitors” (H. Lundbeck A/S, priority 2022, dated 2024)
Read-outs that look alike come from different tables or passages of the source.

Experiments:
LRRK2 WT [1] = target: T1, LRRK2 WT (Homo sapiens (Human), UniProt Q5S007); assay: LRRK2 wild-type ADP-Glo kinase assay; type: biochemical; settings: read-out: LRRK2 WT ADPGlo IC50
Protocol: LRRK2 kinase activity was measured using an ADP-Glo kinase assay from Promega Corporation. The assay is a homogeneous luminescence-based assay that measures ADP formed from a kinase reaction. The ADP is converted into ATP, which is used to generate light in a luciferase reaction. The luminescence generated correlates with kinase activity.
The LRRK2 kinase was obtained from Invitrogen (Life Technologies Corporation) and comprises residue 970 to 2527 of the full length human wild-type LRRK2 kinase. The kinase reactions were performed in a 10 μL volume in 384-well plates. The kinase reaction buffer consisted of 50 mM Tris pH 8.5, 0.01% BRIJ-35, 10 mM MgCl2, 1 mM EGTA, and 2 mM DTT.
The reaction mixture (10 μl total volume) was incubated for 3 hours at room temperature (RT, ca. 25° C.), before the reaction was terminated by addition of 10 μl ADP-Glo reagent. The mixture was further incubated for 60 minutes at RT before addition of 20 μl Kinase detection reagent from the ADP-Glo assay kit. Luminescence signal was measure on a BMG Labtech Pherastar FSX multimode microplate reader. The signal integration time was 0.5 s.
Test compound potency (Ki,app) was estimated by nonlinear regression using the tight-binding fit model in GeneData Screener (GeneData AG). In cases where the Ki,app could not be determined, the % inhibition at the highest tested concentration is reported. The tight-binding fit model is given by euquation (2). […] Ki,app is the apparent dissociation constant of the inhibitor. The IC50 can be calculated as given by equation (3). Equation (3): IC50=Ki,app+[E]/2 (3) IC50 estimates were obtained from independent experiment and the logarithmic average was calculated.

[2] = Hepatic microsomal intrinsic clearance assay; type: in vitro ADME; settings: pooled liver microsomes, pH 7.4; liver microsomes 0.5 mg/mL; 1 μM; NADPH; 1 hour at 37° C.; LLOQ 0.36 L/h/kg
Protocol: Compounds (final concentration 1 μM, 1% organic) of the invention were incubated for 1 hour at 37° C., with shaking, in phosphate buffer (pH 7.4) containing commercially sourced pooled liver microsomes (final concentration 0.5 mg/mL). […] At designated time points (0, 5, 10, 20, 30 and 60 minutes) ice-cold acetonitrile containing internal standard (300 μL) was added to an incubation well to stop the reaction then mixed and centrifuged (3220 g for 20 minutes at 4° C.). Supernatant was diluted (1:4) with deionized water then analyzed by LC-MS/MS.

[3] = Rat brain disposition after oral gavage; type: in vivo, male Sprague-Dawley rats; settings: male, Sprague-Dawley, oral 10 mg/kg, 0.5 h, mean ± stdev
Protocol: Brain disposition was evaluated in male Sprague-Dawley rats (n=3, standard body weight). Briefly, test compound was formulated as a simple suspension (0.5% HPMC in water) then administered by oral gavage (10 mg/kg, 10 mL/kg or 5 mg/kg, 10 mL/kg). At the designated time point (0.5 or 1 h post dose) rats were sacrificed and terminal blood and brain samples taken. Isolated plasma and brain homogenates were extracted by standard protein precipitation in acetonitrile, containing internal standard. Diluted extracts were analyzed by liquid-chromatography coupled with tandem mass spectrometry detection (LC-MS/MS) using a bioanalytical method. Concentrations of test compound in plasma and brain were quantified against matrix matched calibration standards. The total plasma and brain concentration time data are presented in Table 4 alongside the calculated brain Kp (total brain concentration:total plasma concentration ratio).
The total brain-to-plasma partition coefficient (brain Kp) is given by the ratio of the total brain concentration and total plasma concentration of the compound according to the equation below: […]
Based on the measured rat fuplasma and fubrain values and the brain Kp the unbound brain-to-plasma partition coefficient (brain Kp,uu for each compound was calculated. The Kp,uu parameter describes the extent of brain penetration for each compound, i.e. the parameter gives a direct quantitative description of how the blood-brain barrier (BBB) handles the compounds regarding passive transport and active influx/efflux. The brain Kp,uu is given by the equation below: […]

LRRK2 G2019S = LRRK2 G2019S (Homo sapiens (Human), UniProt Q5S007, G2019S); assay: LRRK2 G2019S LanthaScreen TR-FRET kinase activity assay; type: biochemical; settings: 250 pM kinase, 1.3 mM ATP, n≥2 tests
Sequence of LRRK2 G2019S (Q5S007 970-2527 G2019S): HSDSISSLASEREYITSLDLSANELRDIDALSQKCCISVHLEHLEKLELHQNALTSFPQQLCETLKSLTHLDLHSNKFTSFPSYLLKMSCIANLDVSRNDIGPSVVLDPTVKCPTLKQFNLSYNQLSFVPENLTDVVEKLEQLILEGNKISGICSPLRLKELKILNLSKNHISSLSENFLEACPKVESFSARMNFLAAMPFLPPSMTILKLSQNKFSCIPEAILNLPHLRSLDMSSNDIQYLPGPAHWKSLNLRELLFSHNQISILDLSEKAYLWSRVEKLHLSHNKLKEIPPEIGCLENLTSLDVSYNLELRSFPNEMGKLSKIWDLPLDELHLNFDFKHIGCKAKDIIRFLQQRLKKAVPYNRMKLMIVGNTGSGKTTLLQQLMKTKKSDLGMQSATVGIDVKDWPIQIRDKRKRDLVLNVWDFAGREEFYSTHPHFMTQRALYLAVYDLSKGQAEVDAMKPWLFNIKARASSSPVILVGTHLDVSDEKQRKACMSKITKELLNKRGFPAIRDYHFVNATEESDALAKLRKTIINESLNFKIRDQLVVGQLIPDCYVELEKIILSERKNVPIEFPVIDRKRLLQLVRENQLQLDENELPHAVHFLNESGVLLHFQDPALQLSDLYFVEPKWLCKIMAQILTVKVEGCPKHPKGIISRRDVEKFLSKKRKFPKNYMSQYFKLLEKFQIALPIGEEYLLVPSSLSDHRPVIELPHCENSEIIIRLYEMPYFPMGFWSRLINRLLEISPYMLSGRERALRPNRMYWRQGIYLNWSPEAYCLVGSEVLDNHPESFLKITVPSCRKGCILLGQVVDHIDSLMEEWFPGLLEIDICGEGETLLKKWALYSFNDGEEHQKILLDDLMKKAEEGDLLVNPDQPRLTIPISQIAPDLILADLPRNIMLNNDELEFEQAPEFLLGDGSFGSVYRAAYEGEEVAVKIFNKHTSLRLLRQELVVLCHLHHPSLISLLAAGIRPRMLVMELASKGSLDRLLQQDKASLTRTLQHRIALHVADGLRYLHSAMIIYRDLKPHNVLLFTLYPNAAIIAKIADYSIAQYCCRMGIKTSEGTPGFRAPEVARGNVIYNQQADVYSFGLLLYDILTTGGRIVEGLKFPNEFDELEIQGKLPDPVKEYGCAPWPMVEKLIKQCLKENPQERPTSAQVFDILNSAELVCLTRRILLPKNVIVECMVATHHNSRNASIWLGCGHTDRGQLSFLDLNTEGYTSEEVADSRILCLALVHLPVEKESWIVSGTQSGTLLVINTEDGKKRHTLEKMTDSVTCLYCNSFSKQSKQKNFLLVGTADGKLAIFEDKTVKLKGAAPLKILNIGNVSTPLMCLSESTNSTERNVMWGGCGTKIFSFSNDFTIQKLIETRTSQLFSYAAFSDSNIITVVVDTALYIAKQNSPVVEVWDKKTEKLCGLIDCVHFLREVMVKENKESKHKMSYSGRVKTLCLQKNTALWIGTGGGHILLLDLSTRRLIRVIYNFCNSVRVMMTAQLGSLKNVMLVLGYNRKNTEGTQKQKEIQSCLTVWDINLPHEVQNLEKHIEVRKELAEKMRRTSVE
Protocol: (§1) LRRK2 kinase activity was measured using a LanthaScreen kinase activity assay available from Invitrogen (Life Technologies Corporation). […] The phosphorylated peptide is recognized by a terbium-labelled phospho-specific anti-LRRKtide antibody (pLRRKtide antibody), obtainable from Life Technologies Corporation) and, subsequently, the phosphorylated LRRKtide can be quantified by the extent of TR-FRET between the terbium donor and fluorescein acceptor.
(§2) As discussed above, this mutation increases the kinase activity relative to the wild type. The kinase reactions were performed in a 20 μL volume in 384-well plates. The kinase reaction buffer consisted of 50 mM Tris pH 8.5, 0.01% BRIJ-35, 10 mM MgCl2, 1 mM EGTA, and 2 mM DTT.
(§3) The mixture was further incubated for 30 minutes at RT. TR-FRET was measured by excitation of the terbium-donor with 340 nm light and subsequent (delay time […]) measurement of terbium and fluorescein emission at 495 nm and 520 nm, respectively, over a time window of […]. The measurement was repeated 30 times for fluorescein and 30 times for terbium emission with a […] between repeats. TR-FRET measurements were performed on a Biotek Synergy plate. The TR-FRET signal was calculated as the emission-ratio at 520 nm over 495 nm.
(§4) Test compound potency (IC50) was estimated by nonlinear regression using the sigmoidal dose-response (variable slope) using Xlfit 4 (IDBS, Guildford, Surrey, UK, model 205). Were the IC50 could not be determined the % inhibition at the highest tested concentration is given by equation 1. Equation (1): y=(A+((B−A)/(1+((C/x)^D)))) (1)
(§5) where y is the normalized TR-TRET ratio measurement for a given concentration of test compound, x is the concentration of test compound, A is the estimated efficacy (% inhibition) at infinite compound dilution, and B is the maximal efficacy (% inhibition). C is the IC50 value and D is the Hill slope coefficient. IC50 estimates were obtained from independent experiment and the logarithmic average was calculated.

LRRK2 WT [4] = target: T1, LRRK2 WT; assay: LRRK2 wild-type LanthaScreen TR-FRET kinase activity assay; type: biochemical; settings: 1 nM kinase, 1.3 mM ATP, n≥2 tests
Protocol: as §1, §2, §3, §4, §5

[5] = Fraction unbound in rat plasma and brain homogenate by equilibrium dialysis; type: in vitro ADME, male Sprague-Dawley rat; settings: 1 μM, equilibrium dialysis 5 h at 37° C.
Protocol: The fraction of unbound compound in male Sprague-Dawley rat plasma (fuplasma) and brain homogenate (fubrain) were determined by equilibrium dialysis using 96-well HTD-dialysis plates with dialysis membranes (molecular weight cut off 12-14 KDa). One side of the HTD-dialysis plate was loaded with matrix (plasma or brain homogenate) and the other side with buffer (100 mM sodium phosphate buffer, pH 7.4). Test compounds were dissolved in DMSO then spiked (5 μL of 0.2 mM) into blank (995 μL) plasma or diluted brain homogenate (1:4 ratio in phosphate buffer) giving a final nominal concentration 1 μM (≤0.5% DMSO). The matrices were loaded into respective chambers and equilibrated against phosphate buffer for 5 h at 37° C. (in a humidified air incubator with 5% CO2 with shaking). Samples from both chambers (buffer and plasma or brain homogenate) were aliquoted to fresh 96-well polypropylene plates then matrix matched using an equal volume of opposite blank matrix before extraction with cold solvent (3 volumes acetonitrile) containing an appropriate bioanalytical internal standard. After centrifugation (20 min, 3200 g, 4° C.) the supernatants were diluted with appropriate volumes of water and compound concentrations were quantified by LC/MS-MS against matrix matched calibration standards. The fuplasma and fubrain were calculated according to equation 4 below.
[formula] Where [F] is the compound concentration on the buffer (receiver) side of the membrane; [T] is the compound concentration on the plasma or brain (donor) side of the membrane; D is the matrix dilution factor which is determined as D=4 for brain matrix and D=1 for plasma matrix in these assays.

[6] = 0.5 nM kinase, 1.0 mM ATP, IC50=Ki,app+[E]/2, n≥2 tests

T1 sequence (Q5S007 970-2527): as the sequence (Q5S007 970-2527 G2019S) above, with S1050G counted along it

SMILES | IC50 (LRRK2 WT [1]; [6]) [nM] | CLint scaled at 1 μM [2] [mL/min/kg] | IC50 (LRRK2 G2019S) [nM] | IC50 (LRRK2 WT [4]) [nM] | further results
CCOc1ncccc1-n1nc2c(c1C)Nc1ncc3c(Cl)nn(c3n1)CCCO2 [Example 2, 8-Chloro-2-(2-ethoxypyridin-3-yl)-3-methyl-2,4,12,13-tetrahydro-11H-5,7-(azenometheno)dipyrazolo[3,4-b:5′,1′-g][1]oxa[4,6,8]triazacycloundecine] | 0.28 | 20.8 | 0.35 | 0.98 | Kp at 0.5 h ([3]; brain, n=3): 1.2 ± 0.7; Kp uu at 0.5 h ([3]; brain, n=3): 0.35 ± 0.18; concentration at 0.5 h ([3]; brain, n=3, read-out: Total brain concentration): 31 ± 11 ng/g; concentration at 0.5 h ([3]; plasma, n=3, read-out: Total plasma concentration): 32 ± 18 ng/mL; fubrain (% free) ([5]; rat brain homogenate): 2.7 % free; fuplasma (% free) ([5]; rat plasma): 9.7 % free
CCc1ncccc1-n1nc2c(c1C)Nc1ncc3c(Cl)nn(c3n1)CCCO2 [Example 4, 8-Chloro-2-(2-ethylpyridin-3-yl)-3-methyl-2,4,12,13-tetrahydro-11H-5,7-(azenometheno)dipyrazolo[3,4-b:5′,1′-g][1]oxa[4,6,8]triazacycloundecine] | 0.82 | 23.8 | 1.8 | 7 | –
Cc1c2c(nn1-c1cccnc1C(F)(F)F)OCCCn1nc(Cl)c3cnc(nc31)N2 [Example 17, 8-Chloro-3-methyl-2-(2-(trifluoromethyl)pyridin-3-yl)-2,4,12,13-tetrahydro-11H-5,7-(azenometheno)dipyrazolo[3,4-b:5′,1′-g][1]oxa[4,6,8]triazacycloundecine] | 3.1 | 15.3 | 5.5 | 20 | –
Cc1c2c(nn1-c1cccnc1OC(F)(F)F)OCCCn1nc(Cl)c3cnc(nc31)N2 [Example 20, 8-Chloro-3-methyl-2-(2-(trifluoromethoxy)pyridin-3-yl)-2,4,12,13-tetrahydro-11H-5,7-(azenometheno)dipyrazolo[3,4-b:5′,1′-g][1]oxa[4,6,8]triazacycloundecine] | 0.48 | 18.3 | 1.1 | 3.4 | –
COc1nnccc1-n1nc2c(c1C)Nc1ncc3c(Cl)nn(c3n1)CCCO2 [Example 21, 8-Chloro-2-(3-methoxypyridazin-4-yl)-3-methyl-2,4,12,13-tetrahydro-11H-5,7-(azenometheno)dipyrazolo[3,4-b:5′,1′-g][1]oxa[4,6,8]triazacycloundecine] | 0.45 | 25.7 | 0.24 | 0.94 | –
[2H]C([2H])([2H])c1c2c(nn1-c1cccnc1C)OCCCn1nc(Cl)c3cnc(nc31)N2 [Example 26, 8-Chloro-3-(methyl-d3)-2-(2-methylpyridin-3-yl)-2,4,12,13-tetrahydro-11H-5,7-(azenometheno)dipyrazolo[3,4-b:5′,1′-g][1]oxa[4,6,8]triazacycloundecine] | – | 11.7 | – | – | –
[2H]C([2H])([2H])c1c2c(nn1-c1cc(C)cnc1C)OCCCn1nc(Cl)c3cnc(nc31)N2 [Example 27, 8-Chloro-2-(2,5-dimethylpyridin-3-yl)-3-(methyl-d3)-2,4,12,13-tetrahydro-11H-5,7-(azenometheno)dipyrazolo[3,4-b:5′,1′-g][1]oxa[4,6,8]triazacycloundecine] | – | 8.17 | – | – | –
[2H]C([2H])([2H])c1c2c(nn1-c1cccnc1OC)OCCCn1nc(Cl)c3cnc(nc31)N2 [Example 28, 8-Chloro-2-(2-methoxypyridin-3-yl)-3-(methyl-d3)-2,4,12,13-tetrahydro-11H-5,7-(azenometheno)dipyrazolo[3,4-b:5′,1′-g][1]oxa[4,6,8]triazacycloundecine] | – | 10.2 | 0.23 | 0.76 | IC50 (LRRK2 WT [1]): 0.63 nM
[2H]C([2H])([2H])c1c2c(nn1-c1cc(F)cnc1C)OCCCn1nc(Cl)c3cnc(nc31)N2 [Example 30, 8-Chloro-2-(5-fluoro-2-methylpyridin-3-yl)-3-(methyl-d3)-2,4,12,13-tetrahydro-11H-5,7-(azenometheno)dipyrazolo[3,4-b:5′,1′-g][1]oxa[4,6,8]triazacycloundecine] | – | 14 | – | – | –
